Active and inactive are the calls of the source. Cut-off read from the data, not from the text of the source, for most assays here: actives have a measured EC50 and inactives only a lower limit.
Assays:
[1] = Luminescence Cell-Based Dose Retest to Confirm Inhibitors of Cancer Stem Cells. [Related pubchem assays (depositor defined):AID2717, AID2721]; assay type: functional; details: Homo sapiens
[2] = target: T1, Heat shock factor protein 1 (Mus musculus, UniProt P38532); assay: HSF1 potentiators in luciferase reporter cells, confirmation, cell-based, NIH3T3, luminescence, dose retest (AID 435004); assay type: functional;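 note: stress induced by proteasome inhibitor MG132 added 30 min after compound; luciferase reporter driven by HSF1 response element in NIH3T3 cells; actives raise luminescence as potentiators of the MG132 stress response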
T1 sequence (P38532 whole entry): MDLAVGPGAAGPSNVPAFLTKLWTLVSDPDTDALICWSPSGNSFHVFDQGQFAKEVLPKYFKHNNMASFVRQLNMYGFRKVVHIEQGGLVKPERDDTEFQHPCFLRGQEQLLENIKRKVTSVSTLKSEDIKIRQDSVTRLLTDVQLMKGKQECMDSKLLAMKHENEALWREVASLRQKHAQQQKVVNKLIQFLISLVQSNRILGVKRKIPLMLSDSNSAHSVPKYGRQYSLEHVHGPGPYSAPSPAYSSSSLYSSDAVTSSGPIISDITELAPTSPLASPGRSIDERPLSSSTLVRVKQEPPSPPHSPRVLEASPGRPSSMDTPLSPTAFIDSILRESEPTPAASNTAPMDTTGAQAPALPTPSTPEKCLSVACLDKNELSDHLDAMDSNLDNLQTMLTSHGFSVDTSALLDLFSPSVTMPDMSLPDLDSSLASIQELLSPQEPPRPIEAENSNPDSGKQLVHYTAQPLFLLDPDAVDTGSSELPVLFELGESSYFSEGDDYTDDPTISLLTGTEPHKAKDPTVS

Large T antigen = Large T antigen (Simian virus 40, UniProt P03070); assay type: functional, Betapolyomavirus macacae;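 note: Confirmatory-stage PubChem screen for compounds that inhibit SV40 T antigen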
Large T antigen, sequence (P03070 whole entry): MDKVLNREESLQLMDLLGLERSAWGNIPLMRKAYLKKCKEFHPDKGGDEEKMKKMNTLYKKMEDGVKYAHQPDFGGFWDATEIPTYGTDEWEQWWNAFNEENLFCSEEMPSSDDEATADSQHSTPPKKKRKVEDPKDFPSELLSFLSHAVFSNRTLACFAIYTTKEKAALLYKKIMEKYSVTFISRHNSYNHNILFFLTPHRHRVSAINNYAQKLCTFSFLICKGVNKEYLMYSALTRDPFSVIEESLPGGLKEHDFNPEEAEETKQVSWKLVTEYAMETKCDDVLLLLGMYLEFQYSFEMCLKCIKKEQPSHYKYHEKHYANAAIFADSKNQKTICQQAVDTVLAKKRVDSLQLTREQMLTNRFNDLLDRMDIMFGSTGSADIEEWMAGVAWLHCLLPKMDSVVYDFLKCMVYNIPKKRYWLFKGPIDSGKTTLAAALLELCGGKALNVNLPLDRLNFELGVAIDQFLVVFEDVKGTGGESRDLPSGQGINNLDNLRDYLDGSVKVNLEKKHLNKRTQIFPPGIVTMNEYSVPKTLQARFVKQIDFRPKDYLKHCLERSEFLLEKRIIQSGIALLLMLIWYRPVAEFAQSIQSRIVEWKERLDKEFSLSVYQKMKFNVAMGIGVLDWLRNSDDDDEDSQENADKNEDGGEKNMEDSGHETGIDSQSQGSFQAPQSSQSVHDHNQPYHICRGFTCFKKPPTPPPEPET

[3] = inhibitors of intracellular T. cruzi replication, confirmation, NIH3T3 host cells, beta-gal luminescence (AID 2044); assay type: functional, cell-based;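 note: intracellular parasites grown in NIH/3T3 mouse fibroblasts as host cells; luminescent beta-galactosidase reporter signal from transgenic T. cruzi replicating inside host cells; inhibitors lower the luminescence signal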
[4] = cytotoxicity toward NIH3T3 fibroblasts, dose response, counter-screen, cell-based, ATP luminescence, mouse fibroblasts (AID 2010); assay type: functional;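 note: cells exposed to compound for about 90 hours before reading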
cells = assay type: functional
[5] = Luminescence Cell-Based Dose Confirmation HTS to Identify Activators of 5'UTR Stem-Loop Driven Alpha-Synuclein mRNA Translation in H4 Neuroglioblastoma Cells. [Related pubchem assays: 1829 (Project Summary), 1814 (Primary HTS)]; assay type: functional
[6] = Luminescence Cell-Based Dose Response HTS to Identify Activators of Luciferase Translation or Activity in H4 […] Cells. [Related pubchem assays: 1829 (Project Summary), 1814 (Primary HTS)]; assay type: functional
H4 = assay: Luminescence Cell-Based Dose Response HTS to Identify Activators of 5'UTR Stem-Loop Driven Prion Protein mRNA Translation in H4 Neuroglioblastoma Cells. [Related pubchem assays: 1829 (Project Summary), 1814 (Primary HTS)]; assay type: functional; details: Homo sapiens
[7] = NIH-3T3 fibroblast cytotoxicity, dose response, cytotoxicity control, cell-based, fluorescence, Alamar Blue, secondary assay (AID 2327); assay type: functional;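 note: NIH-3T3 mouse fibroblasts cultured with fluconazole at 8 µg/mL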
[8] = C. albicans growth with fluconazole, confirmation, fluorescence, retest (AID 2467); assay type: functional, cell-based
[9] = target: T1, Heat shock factor protein 1; assay: inhibition of MG132-induced HSE-luciferase signal, confirmation, cell-based, NIH3T3, luminescence, dose retest (AID 2382); assay type: functional;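 note: NIH3T3 fibroblasts with HSF1-driven luciferase reporter stressed by proteasome inhibitor MG132; luminescence from HSF1-driven luciferase expression after 8 hours of MG132 stress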
[10] = test system: Streptococcus sp. 'group A'; assay: growth inhibition of control SK(-) GAS strain, dose response, counter-screen for streptokinase expression inhibitor project, luminescence, kanamycin, BacTiterGlo, confirmation (AID 1900); assay type: functional, organism-based
Streptokinase A = target: T2, Streptokinase A (Streptococcus pyogenes serotype M1, UniProt P10520); assay: S. pyogenes streptokinase expression inhibitors, potency, dose response, plasminogen activation absorbance, OD405 (AID 1914); assay type: functional, Streptococcus pyogenes M1 GAS;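 note: secreted streptokinase activity via plasminogen activation per viability signal from cell pellet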
T2 sequence (P10520 whole entry): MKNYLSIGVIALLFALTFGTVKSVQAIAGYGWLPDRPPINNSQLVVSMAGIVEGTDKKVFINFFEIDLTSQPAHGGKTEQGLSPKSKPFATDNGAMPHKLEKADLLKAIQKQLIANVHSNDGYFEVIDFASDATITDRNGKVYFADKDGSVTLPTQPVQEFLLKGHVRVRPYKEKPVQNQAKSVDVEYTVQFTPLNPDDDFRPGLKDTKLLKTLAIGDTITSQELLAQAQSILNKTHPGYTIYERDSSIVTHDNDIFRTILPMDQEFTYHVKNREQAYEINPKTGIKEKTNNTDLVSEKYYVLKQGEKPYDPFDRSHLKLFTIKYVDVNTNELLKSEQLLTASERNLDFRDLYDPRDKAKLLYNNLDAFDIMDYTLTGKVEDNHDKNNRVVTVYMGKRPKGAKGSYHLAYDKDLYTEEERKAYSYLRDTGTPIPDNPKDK

Streptococcus = assay: Group A Streptococcus viability loss, dose response, counter-screen for streptokinase expression inhibitor project, luminescence, BacTiterGlo (AID 1915); assay type: functional, organism-based;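 note: potency for reduction of bacterial viability or growth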
[11] = target: T3, Microphthalmia-associated transcription factor (Homo sapiens, UniProt O75030); assay: TRPM1 promoter luciferase signal decrease, dose response, MITF inhibitor project, cell-based, SK-MEL-5, cherry-picked, set 3 (AID 493073); assay type: functional
T3 sequence (O75030 whole entry): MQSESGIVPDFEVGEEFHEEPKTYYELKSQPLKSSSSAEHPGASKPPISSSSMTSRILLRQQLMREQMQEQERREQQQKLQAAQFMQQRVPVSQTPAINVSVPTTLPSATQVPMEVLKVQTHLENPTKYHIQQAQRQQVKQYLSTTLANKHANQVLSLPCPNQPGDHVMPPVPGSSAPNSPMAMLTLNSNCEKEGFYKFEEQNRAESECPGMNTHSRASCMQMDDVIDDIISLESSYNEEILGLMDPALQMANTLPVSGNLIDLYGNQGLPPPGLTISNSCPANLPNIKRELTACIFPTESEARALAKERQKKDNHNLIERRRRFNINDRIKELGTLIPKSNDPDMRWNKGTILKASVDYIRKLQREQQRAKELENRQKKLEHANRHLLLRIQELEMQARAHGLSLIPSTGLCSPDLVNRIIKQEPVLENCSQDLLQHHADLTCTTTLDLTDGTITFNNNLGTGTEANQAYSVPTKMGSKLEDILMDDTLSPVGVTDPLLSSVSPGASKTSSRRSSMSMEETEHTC

[12] = target: FAD-linked sulfhydryl oxidase ALR (Homo sapiens, UniProt P55789); assay: inhibitors of human ALR sulfhydryl oxidase, dose response, biochemical, H2O2 detection, luminescence, cherry-pick (AID 493248)
FAD-linked sulfhydryl oxidase ALR, sequence (P55789 whole entry): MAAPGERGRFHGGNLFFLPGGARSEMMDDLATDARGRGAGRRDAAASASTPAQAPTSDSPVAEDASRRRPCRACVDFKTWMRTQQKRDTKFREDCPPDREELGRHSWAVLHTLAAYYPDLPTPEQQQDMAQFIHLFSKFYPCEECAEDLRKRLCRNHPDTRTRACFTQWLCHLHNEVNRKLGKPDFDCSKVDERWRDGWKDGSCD

[13] = microbe, parasite or virus in culture; assay type: functional; details: Mycobacterium tuberculosis
INS1 = assay: beta cell apoptosis inhibitors, cytokine rescue, dose response, luminescence, retest (AID 449756); assay type: functional, cell-based; details: Rattus norvegicus;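 note: cell death triggered by IL-1 beta plus TNF-alpha plus IFN-gamma mixture; protective hits raise ATP signal compared with cytokine alone wells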
[14] = target: T4, Rac GTPase-activating protein 1 (Homo sapiens, UniProt Q9H0H5); assay: MgcRacGAP GTPase-activating activity inhibitors, confirmation, biochemical, ADP Hunter fluorescence, primary and confirmatory (AID 624330); assay type: functional
T4 sequence (Q9H0H5 whole entry): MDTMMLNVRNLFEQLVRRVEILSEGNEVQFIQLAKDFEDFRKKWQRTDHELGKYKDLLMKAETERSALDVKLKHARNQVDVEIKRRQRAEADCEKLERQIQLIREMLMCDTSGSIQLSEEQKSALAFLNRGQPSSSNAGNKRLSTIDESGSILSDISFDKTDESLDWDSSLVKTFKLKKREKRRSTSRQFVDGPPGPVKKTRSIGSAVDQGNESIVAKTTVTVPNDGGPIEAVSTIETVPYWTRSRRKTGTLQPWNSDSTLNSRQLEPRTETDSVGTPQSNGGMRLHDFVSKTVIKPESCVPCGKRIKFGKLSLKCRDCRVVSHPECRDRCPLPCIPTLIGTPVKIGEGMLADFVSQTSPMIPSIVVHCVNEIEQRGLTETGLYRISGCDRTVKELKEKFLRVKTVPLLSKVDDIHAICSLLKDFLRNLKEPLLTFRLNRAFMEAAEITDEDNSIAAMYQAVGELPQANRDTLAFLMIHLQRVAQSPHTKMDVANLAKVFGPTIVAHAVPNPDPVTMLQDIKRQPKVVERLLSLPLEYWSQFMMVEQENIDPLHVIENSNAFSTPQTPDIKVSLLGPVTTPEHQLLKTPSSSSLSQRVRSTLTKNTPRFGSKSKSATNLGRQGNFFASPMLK

[15] = growth suppression of beta-catenin-knockout colon cells, dose response, cell-based, HCT116, human colon tumor (AID 1045); assay type: functional;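 note: HCT116 colon tumor cells with beta catenin knocked out; cells exposed to compound for 60 hours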
[16] = P. falciparum Dd2 growth inhibitors, dose response, SYBR Green, cherry-picked samples (AID 1159567); assay type: functional, cell-based

O=C(c1ccco1)c1nnn(Cc2ccccc2)c1-c1ccccc1
AC50 [1]: 3.72 µM (active) | EC50 [2]: > 260 µM (inactive)

CN(C)c1ccc(Nc2cc(Cl)ncn2)cc1
IC50 (Large T antigen): 7.46 µM (active)

CCOC(=O)CNc1c(-c2ccc(O)cc2)nc2ccc(Cl)cn12
IC50 (Large T antigen): 15.9 µM (active)

COc1ccc2c(c1)sc(=N)n2C
EC50 [3]: 0.122 µM (active) | EC50 [4]: > 60 µM (inconclusive) | IC50 (cells): 30 µM (active)

Oc1ccc(-c2csc(-c3c[nH]c4ccccc34)n2)c(O)c1
EC50 [5]: 0.115 µM (active) | EC50 [6]: 4.35 µM (inconclusive) | EC50 (H4): 10.2 µM (active)

CCCN1CCN(C(=O)c2ccc(Sc3ccc(C)cc3)c(NC(C)=O)c2)CC1
EC50 [2]: > 260 µM (inactive)

O=C(c1ccccc1)c1c[nH]c(C(=O)NNc2ccccc2)c1
EC50 [7]: 28.3 µM (active) | EC50 [8]: > 38 µM (not active) | EC50 [3]: 1.71 µM (active) | EC50 [4]: 7.46 µM (active) | AC50 [1]: 1.09 µM (active)

Cc1ccc(NC(=O)CCS(=O)(=O)c2ccc3c(c2)NC(=O)C(C)S3)nc1 (stereo not drawn)
EC50 [2]: > 260 µM (inactive)

O=C(Cc1ccc(O)cc1)NC1CCCCCC1
EC50 [5]: 47.4 µM (active) | EC50 [6]: 52 µM (active) | EC50 (H4): 16.8 µM (active) | EC50 [9]: > 195 µM (not active)

O=C1c2cccc3cccc(c23)C(=O)N1OS(=O)(=O)c1ccccc1
EC50 [2]: > 260 µM (inactive)

Cc1ccc(C(=O)CC(=O)c2ccccc2C)c(O)c1
EC50 [7]: > 150 µM (inactive) | EC50 [10]: 6.61 µM (active) | EC50 (Streptokinase A): > 150 µM (not active) | EC50 [8]: > 38 µM (not active) | EC50 (Streptococcus): 9.83 µM (active)

CC1CC(C)CN(C(=O)/C=C/c2ccc([N+](=O)[O-])s2)C1 (stereo not drawn)
AC50 [11]: 11.9 µM (active)

CCN(CC)c1ccc(C(=O)OCC(=O)c2ccco2)cc1
EC50 [5]: 14.1 µM (active) | EC50 [6]: 94 µM (active) | EC50 (H4): 57.4 µM (active)

O=C(CCCN1C(=O)c2cccc3cccc(c23)C1=O)Nc1ccon1
EC50 [2]: > 260 µM (inactive)

CCCc1cc(O)nc(SCC(=O)Nc2ccc(C)cc2)n1
EC50 [2]: > 260 µM (inactive)

COc1cccc(-c2nnc(SCc3cccnc3)o2)c1
EC50 [5]: 43.2 µM (active) | EC50 [6]: 33.1 µM (active) | EC50 (H4): 12.2 µM (active)

Cc1csc(Nc2ccccc2)[n+]1-c1ccccc1
EC50 [5]: > 120 µM (not active) | EC50 [6]: > 30 µM (not active) | EC50 (H4): 6.74 µM (active) | AC50 [12]: 1.14 µM (active)

O=C(CCN1CCCCCC1)c1ccccc1
AC50 [12]: 5.85 µM (active) | IC50 (cells): 41 µM (active)

O=C(NCCc1c[nH]c2ccccc12)c1ccc(Cl)cc1
EC50 [5]: 21.9 µM (active) | EC50 [6]: > 120 µM (not active) | EC50 (H4): > 120 µM (not active)

CNc1nnc(Sc2ncccc2[N+](=O)[O-])s1
IC50 (cells): 7.5 µM (active)

Cc1ccc(C#CC[N+]2(CC#Cc3ccc(C)cc3)CCCCC2)cc1
EC50 [3]: 0.344 µM (active) | CC50 [13]: > 40 µM (active) | EC50 [4]: > 60 µM (inconclusive) | AC50 [11]: 3.95 µM (active) | AC50 (INS1): 2.04 µM (active)

O=C(N/N=C/c1ccc(O)cc1O)/C(=C/c1ccccc1)CCO
IC50 (Large T antigen): 19.4 µM (active) | AC50 [1]: 6.81 µM (active) | AC50 (INS1): 2.11 µM (active)

COc1cc(/C=N/NC(=O)Cn2nnc3ccccc32)ccc1O
IC50 (Large T antigen): 6.59 µM (active) | IC50 [14]: 24.3 µM (active)

O=C(CNC(=O)c1ccccc1)N/N=C/c1ccc([N+](=O)[O-])s1
EC50 [3]: 0.285 µM (active) | EC50 [4]: 12.7 µM (active) | AC50 [11]: 5.34 µM (active)

CC(/C=N/Nc1n[nH]c2c3ccccc3nc-2n1)=C\c1ccco1
EC50 [5]: 11 µM (active) | EC50 [6]: 17.6 µM (active) | EC50 (H4): 15.5 µM (active)

CCOc1cc(/C=N/O)ccc1OS(=O)(=O)c1ccc(C)cc1
EC50 [15]: 312 µM (active)

O=C(CN1c2ccccc2Sc2ccccc21)N/N=C/c1ccc(Cl)cc1
EC50 [2]: > 260 µM (inactive)

COc1cc(/C=N/NC(=O)CSc2ccccn2)ccc1O
IC50 (Large T antigen): 9.69 µM (active)

COc1cc(/C=N/NC(=O)CNc2nnc(O)nc2O)ccc1O
IC50 (Large T antigen): 8.93 µM (active) | IC50 [14]: 35.9 µM (active)

COc1ccc2c3c([nH]c2c1)[C@H](CO)N(Cc1ccc(F)cc1)CC31CCN(Cc2ccccn2)CC1
AC50 [16]: 2.95 µM (active)

CCC(=O)N1CC2(C1)CN(Cc1cc(F)ccc1F)[C@@H](CO)c1[nH]c3cc(OC)ccc3c12
AC50 [16]: 7.9 µM (active)

C/C=C/c1ccc2c(c1)[C@H]1[C@H](CCN1C(=O)C1CCCC1)[C@@H](CO)N2
AC50 [16]: 4.97 µM (active)

C/C=C/c1ccc([C@H]2[C@@H](CO)N(CC3CCCC3)C23CN(C(=O)CC2CC2)C3)cc1
AC50 [16]: 4.55 µM (active)

N#Cc1ccc(-c2ccc3c(c2)[C@H]2[C@H](CCN2C(=O)C2CCCC2)[C@H](CO)N3)cc1
AC50 [16]: 4.55 µM (active)

O=C1C2CCCCN2C(=O)N1CCCN1CCN(c2ccc(F)cc2)CC1 (stereo not drawn)
EC50 [2]: > 260 µM (inactive)
